Source: patent publication US8748130B2, “Human papillomavirus / Ii-Key hybrids and methods of use” (priority 2008, dated 2014)

System: HPV11-specific CTL activity
Test: In vivo CTL assay (CFSE-labelled target cells) after co-immunization with CTL epitope HPV11
Parameters: species or system HLA-DR4-tg mice
Conditions: 3 weeks
Description: HLA-DR4-tg mice were immunized with no peptide (A); 60 nmole of HPV11 (HPV16 E7 (49-57) an H-2D^b-restricted CTL epitope) (B); 60 nmole of HPV11 plus 15 nmole HPV4 hybrid (C); 60 nmole of HPV11 plus 30 nmole HPV4 hybrid (D); or 60 nmole of HPV11 plus 60 nmole HPV4 hybrid (E). Peptides were mixed with 20 μg of CpG and then emulsified in an equal volume of IFA in a total volume of 150 μl/mouse. Three weeks after immunization, HPV11-specific CTL activity was measured in an in vivo assay whereby the cells were incubated with either the immunizing peptide (HPV11) and a high concentration of CFSE or no peptide and a low concentration of CFSE. Equal numbers of the two cell populations were mixed and injected by tail vein into mice. The top figure indicates the percentage of HPV11-specific CTL killing as determined by the ratio of CFSE^low to CFSE^high cells using the formula 1—CFSE^low/CFSE^high following flowcytometry. The histograms for each group are shown below. The data shown are from pooled splenocytes (2 mice per group).
HLA-DR4-tg mice were immunized with no peptide (A); 60 nmole of HPV11 (HPV16 E7 (49-57), an H-2D^b-restricted CTL epitope) (B); 30 nmole HPV1 plus 60 nmole HPV11 (C); or 30 nmole HPV4 plus 60 nmole HPV11. The peptides were administered as indicated for FIG. 3. Three weeks after immunization, HPV11-specific CTL activity was measured in an in vivo assay (see FIG. 3). […]

rahynivtf (RAHYNIVTF; Human papillomavirus type 16) [HPV11]
HPV11-specific CTL killing (%) (Table 5: 60 nmole HPV11 alone, CpG + IFA, pooled splenocytes (2 mice per group)): 19%
HPV11-specific CTL activity (%) (Table 6: 60 nmole HPV11 alone or with 30 nmole HPV1 or HPV4, CpG + IFA, pooled splenic cells): 14%
